Where two headings read alike, the source gives them in different places.
Key:
IL-5 = assay: Cytokine release after LPS induction on human whole blood: IL-5; assay type: cell-based
Procedure: Aim of this in vitro method is to assess compounds effects on release of a panel of cytokines from whole blood following lipopolysaccharide (LPS) induced inflammatory reaction. Whole blood was incubated with compounds for 1 h prior to LPS induction. Cytokine levels in blood were measured using a multiplex FACS-based panel.
IC50 values determined for the tested compounds expressed in microM [μM] and the values for the inhibition of cytokines were listed for each compound.
Effect on cytokines release after LPS induction was performed on the compounds dissolved in DMSO or H2O to reach 10-fold concentrated stock solutions and dissolved in culture media.
Test system: Whole blood was removed from a single donor (into lithium heparin coated tubes; BD Vacutainer; 367886) and diluted 1:5 with RPMI 1640 (Thermo Fisher, 61870036). Within 30 minutes of sampling, blood was incubated with compounds for 1 h prior to LPS stimulation (O111:B4—Sigma L4391; 10 ng/ml final concentration). Stimulation continued under standard cell culture conditions (37° C. with 5% CO2) overnight (18 h), after which plates were centrifuged and supernatant removed and frozen at −80° C. until used for analyses.
Dilution of test compounds: 10×concentrated solutions (concerning to the final assay concentrations) of each test compound were prepared with the appropriate solvent (in DMSO or in water). These 10× compound solutions (10 μl) were then added to 90 μl pre-diluted whole blood (whole blood: RPMI1640, 1:5) resulting in the final assay concentration.
Test method: Diluted whole blood (80 μl) was pre-incubated with compounds (10 μl) to give final assay concentrations of 100, 30, 10, 3, 1, 0.3 and 0.1×10^−6M. Blood was incubated at 37° C. with 5% CO2 for 1 h. LPS was diluted in cell culture media to a concentration of […]; 10 μl was added to the whole blood to give a final concentration of 10 ng/ml. Plates were incubated at 37° C. for 18 h. Plates were centrifuged at 3,000 RPM for 5 minutes at 4° C. and supernatant removed and frozen at −80° C. until FACS analysis was carried out.
Cytokine release was measured using a custom multiplex system (ELISA Genie) according to manufacturers instructions. Prepared samples were run on an Attune NxT flow cytometer (Thermo Fisher).
Quantification of cytokine release inhibition: known concentration standards were run as part of the cytokine panel to allow quantification of each cytokine concentration in each sample. This was carried out using FCAP Array v3.0 software.
Results: The dose response relationship on cytokine release following LPS induction of inflammatory response in whole blood was assessed for all compounds. IC50 values were determined for each compound for a panel of cytokines (GM-CSF, IFN-gamma, IL-1beta, IL-2, IL-4, IL-5, IL-6, IL-8, IL-9, IL-10, IL-12p40, IL-13, IL-17A, IL-17F, IL-18, IL-21, IL-22, IL-33, TGF-beta, TNF-alpha, TNF-beta).

[1] = test system: STZ-induced diabetes model; assay: STZ-induced diabetic nephropathy, kidney disease and retinopathy model (28 days treatment)
Procedure: A total of 70 female CD-1 mice aged 5-7 weeks weighing approximately 25-30 g were used for the study. These were purchased from Charles River, UK and had 7 days acclimatization period. Animals were housed in IVC cages (up to 5 per cage) with individual mice identified by tail mark. All animals were allowed free access to a standard certified commercial diet and sanitised water during the study. The holding room was maintained under standard conditions: 18-24° C., 55-70% humidity and a 12 h light/dark cycle.
Mice were starved for 6 hours prior to injection. One week after completion of induction glucose levels were monitored and mice with levels less than 15 mml/L (280 mg/gL) were removed from the study as they had not developed the ideal severity of diabetes. Glucose levels were be monitored weekly and 5 weeks after STZ induction biochemical assessment of renal injury was carried out by measuring urine albumin and creatinine levels and confirming they were within the desired range. After successful completion of this stage animals were assigned to treatment groups.
Treatment continued for 4 weeks (28 days) with weekly measurement of blood glucose and urine albumin/creatinine. The study schedule is detailed below looking at weekly (week 5 to 9) blood glucose levels, urine albumin creatinie ratios, and terminal (week 9) blood chemistry and cytokines, kidney histology and eye-retinal leakage.
Urine Albumin: Creatinine (ALB: CRE): Urine was collected weekly and pooled for each treatment group.
ELISAs: At the end of the treatment period blood was collected and processed to serum. Serum levels of CRP, TGF-β, IL-6 and TNF-α were quantified using commercially available ELISA kits, results are shown in Table 56.

[2] = day 28 of treatment (week 9), 15 mg/kg IV, Captopril 50 mg/kg PO
[3] = day 28 of treatment (week 9), serum, 15 mg/kg IV, Captopril 50 mg/kg PO

SMILES: O=C(O)c1cc(O)cc(CS(=O)(=O)Cc2cc(O)cc(C(=O)O)c2O)c1O [IVc-059a, 3-((2,5-Dihydroxy-3-carboxyphenyl)methylsulfonylmethyl)-2,5-dihydroxybenzoic acid]
- IC50 (IL-5; Homo sapiens, LPS 10 ng/ml, 18 h, read-out: Whole Blood: IL-5 IC50): > 100 µM
- IC50 (IL-5; human whole blood, inhibition of LPS induced inflammation, read-out: IC50 IL-5): 100 µM
- Retina vasculature coverage ([1]; 28 days, retinal flat mounts, FITC-dextran): significantly decreased
- Kidney collagen levels (Masson's Trichrome) ([1]; 28 days, vs induced vehicle controls): significantly decreased
- Blood glucose levels on day 28 ([1]; IV, vs induced vehicle controls): significant reduction
- Mean day 0 blood glucose Concentration (mmol/L) (SD) ([1]; day 0, 15 mg/kg IV, Captopril 50 mg/kg PO): 24.3 (6.4) mmol/L
- Mean day 28 blood glucose Concentration (mmol/L) (SD) ([1]; day 28, 15 mg/kg IV, Captopril 50 mg/kg PO): 23.7 (6.6) mmol/L
- Blood urea nitrogen levels ([1]; day 28, vs induced vehicle controls): significantly lower than induced vehicle controls
- Blood BUN [1, 2]: 22.5 ± 2.8
- Disease Score (kidney, H&E) [1, 2]: 7 ± 1
- Eye area (retinal flatmount area covered by vasculature) [1, 2]: 8.7 ± 1.2
- Trichrome staining (Kidney fibrosis) [1, 2]: 1.48 ± 0.73
- Blood CRP [1, 3]: 5691 ± 1395
- Blood IL-6 [1, 3]: 120.88 ± 23.05
- Blood TGF-beta [1, 3]: 13.47 ± 3.33
- Blood TNF-alpha [1, 3]: 350.2 ± 41.4
- Urine albumine creatinine ratio (ALB:CRE) ([1]; day 28 of treatment (week 9), urine pooled per group, 15 mg/kg IV, Captopril 50 mg/kg PO): 18.85
- Urine ALB:CREA ([1]; treatment day 28): reduced
